# Measurements taken from paper PMC9848300, “Discovery of novel enasidenib analogues targeting inhibition of mutant isocitrate dehydrogenase 2 as antileukaemic agents” (Journal of Enzyme Inhibition and Medicinal Chemistry, 2023).
# Read-outs that look alike come from different tables or passages of the source.
# Legend:
# SNB-19 = experiment: NCI 60 antitumor screening (single dose); format: cell-based; details: Homo sapiens; SNB-19 (CNS cancer), single dose 10 μM; read-out: Growth inhibition percentage (GI %)
# Summary of the method: (§1)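 Percent growth inhibition, calculated as 100 minus percent growth (G%) of treated cells, following a single 10 μM exposure in the NCI 60 human cancer cell screen; triplicate runs.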
# TK-10 = experiment: NCI 60 antitumor screening (single dose); format: cell-based; details: Homo sapiens; TK-10 (renal cancer), single dose 10 μM; read-out: Growth inhibition percentage (GI %)
# Summary of the method: as §1
# HCC-2998 = experiment: NCI 60 antitumor screening (single dose); format: cell-based; details: Homo sapiens; HCC-2998 (colon cancer), single dose 10 μM; read-out: Growth inhibition percentage (GI %)
# Summary of the method: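 Values are GI% (100 minus percent growth, G%) from the NCI 60 cell line screen at one 10 μM concentration. Tests were done in triplicate under NCI protocol, with a mean across the whole panel reported as well.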
# RPMI-8226 = experiment: NCI 60 antitumor screening (single dose / five doses); format: cell-based; details: Homo sapiens
# SF-539 = experiment: as above; format: cell-based; details: Homo sapiens
# COLO 205 = experiment: as above; format: cell-based; details: Homo sapiens
# LOX IMVI = experiment: as above; format: cell-based; details: Homo sapiens, read-out: Growth inhibition percentage (GI %)
# SF-295 = experiment: as above; format: cell-based; details: Homo sapiens
# EKVX = experiment: as above; format: cell-based; details: Homo sapiens, read-out: Growth inhibition percentage (GI %)
# SW-620 = experiment: as above; format: cell-based, human; details: Homo sapiens
# IGROV1 = experiment: as above; format: cell-based; details: Homo sapiens
# UO-31 = experiment: as above; format: cell-based; details: Homo sapiens
# HCT-15 = experiment: as above; format: cell-based; details: Homo sapiens
# HCT-116 = experiment: as above; format: cell-based; details: Homo sapiens
# A498 = experiment: as above; format: cell-based; details: Homo sapiens
# MDA-MB-231/ATCC = experiment: as above; format: cell-based; details: Homo sapiens
# RXF 393 = experiment: as above; format: cell-based; details: Homo sapiens
# UACC-62 = experiment: as above; format: cell-based; details: Homo sapiens
# SR = experiment: as above; format: cell-based; details: Homo sapiens, read-out: Growth inhibition percentage (GI %)
# [1] = system: 60 human subpanel cancer cell lines; experiment: NCI 60 antitumor screening, mean over the panel (single dose); format: cell-based; details: mean over 60 cancer cell lines, single dose 10 μM
# Protocol: Initially, the anticancer effects of target compounds have been assessed at a single (10 μM) dose. The obtained data have been reported as mean-graph of the percent growth (G%) of the treated cancer cells. Percentage growth inhibition (GI%) is calculated (100 − G%) and pronounced in Table 1. […] Target compounds in series (III) with manipulated linkers disclosed lower potency. Superiorly, eight s-triazine derivatives from the three series (6a, 6c, 6d, 7a, 7g, 7i, 7l, and 8b) have shown potent broad-spectrum anticancer activity against most the examined cell lines, whereas most of the remaining triazine derivatives, 20 derivatives, have exerted selective anti-proliferative actions towards certain cancer cell lines (Supplementary).
# The antitumor screening was performed for 60 human cancer cell lines under the protocol of NCI (www.dtp.nci.nih.gov), the Drug Evaluation Branch, Bethesda, MD. All submitted compounds were nominated based on the degree of structural diversity and computer modelling techniques for evaluation of their anticancer activity. The screening process for antineoplastic activity passes through two successive levels, starting with the assessment of target compounds at a single dose of 10 μM against 60 cancer cell lines on nine types of human tumours. These experiments were done on a triplicate following. The output from the single‐dose screening was covered as a mean graph, and then, analysed by the COMPARE program. Finally, the compounds which disclosed subpanel cancer cell growth (G %) equal to or less than 10% in at least eight cancer cell lines get to pass the assessment against the 60 cell lines at five doses (0.01–100 μM). By using GraphPad Prism version 9.0 (Graphpad Software Inc., La Jolla, CA), GI50, TGI, as well as LC50 dose‐response parameters were computed and presented for each compound (Supplementary information)[55–57].
# CCRF-CEM = experiment: NCI 60 antitumor screening (single dose / five doses); format: cell-based; details: Homo sapiens, read-out: Growth inhibition percentage (GI %)
# MDA-MB-468 = experiment: as above; format: cell-based; details: Homo sapiens
# HOP-92 = experiment: as above; format: cell-based; details: Homo sapiens
# BT-549 = experiment: as above; format: cell-based; details: Homo sapiens
# NCI/ADR-RES = experiment: as above; format: cell-based; details: Homo sapiens, read-out: Growth inhibition percentage (GI %)
# 786-0 = experiment: as above; format: cell-based; details: Homo sapiens
# MDA-MB-435 = experiment: as above; format: cell-based; details: Homo sapiens
# SK-MEL-2 = experiment: as above; format: cell-based; details: Homo sapiens
# [2] = RPMI-8226, read-out: Growth inhibition percentage (GI %)
# [3] = SF-539, read-out: Growth inhibition percentage (GI %)
# [4] = COLO 205, read-out: Growth inhibition percentage (GI %)
# [5] = SF-295, read-out: Growth inhibition percentage (GI %)
# [6] = SW-620, read-out: Growth inhibition percentage (GI %)
# [7] = IGROV-1, read-out: Growth inhibition percentage (GI %)
# [8] = HCT-15, read-out: Growth inhibition percentage (GI %)
# [9] = HCT-116, read-out: Growth inhibition percentage (GI %)
# [10] = A498, read-out: Growth inhibition percentage (GI %)
# [11] = MDA-MB-231, read-out: Growth inhibition percentage (GI %)
# [12] = RXF 393, read-out: Growth inhibition percentage (GI %)
# [13] = UACC-62, read-out: Growth inhibition percentage (GI %)
# [14] = MDA-MB-468, read-out: Growth inhibition percentage (GI %)
# [15] = HOP-92, read-out: Growth inhibition percentage (GI %)
# [16] = BT-549, read-out: Growth inhibition percentage (GI %)
# [17] = 786-0, read-out: Growth inhibition percentage (GI %)
# [18] = MDA-MB-435, read-out: Growth inhibition percentage (GI %)
# [19] = SK-MEL-2, read-out: Growth inhibition percentage (GI %)
smiles,measurement,setting,value
"Fc1cccc(/C=N/Nc2nc(N/N=C/c3cccc(F)c3)nc(N3CCCCC3)n2)c1 [compound 7e, 2,4-Bis[(E)-2-[(3-Fluorophenyl)methylidene]hydrazin-1-yl]-6-(piperidin-1-yl)-1,3,5-triazine]",inhibition at 10 µM,SNB-19,3.96%
same,inhibition at 10 µM,TK-10,-20.6%
same,inhibition at 10 µM,HCC-2998,0.77%
same,inhibition at 10 µM,"RPMI-8226; RPMI-8226 (leukaemia), single dose 10 μM, read-out: Growth inhibition percentage (GI %)",38.8%
same,inhibition at 10 µM,"SF-539; SF-539 (CNS cancer), single dose 10 μM, read-out: Growth inhibition percentage (GI %)",-3.16%
same,inhibition at 10 µM,"COLO 205; COLO 205 (colon cancer), single dose 10 μM, read-out: Growth inhibition percentage (GI %)",-0.08%
same,inhibition at 10 µM,"LOX IMVI; LOX IMVI (melanoma), single dose 10 μM",14.2%
same,inhibition at 10 µM,"SF-295; SF-295 (CNS cancer), single dose 10 μM, read-out: Growth inhibition percentage (GI %)",15.6%
same,inhibition at 10 µM,"EKVX; EKVX (non-small cell lung cancer), single dose 10 μM",29.3%
same,inhibition at 10 µM,"SW-620; SW-620 (colon cancer), single dose 10 μM, read-out: Growth inhibition percentage (GI %)",-7.5%
same,inhibition at 10 µM,"IGROV1; IGROV-1, IGROV1 (ovarian cancer), single dose 10 μM, read-out: Growth inhibition percentage (GI %)",9.61%
same,inhibition at 10 µM,"UO-31; UO-31 (renal cancer), single dose 10 μM, read-out: Growth inhibition percentage (GI %)",22.1%
same,inhibition at 10 µM,"HCT-15; HCT-15 (colon cancer), single dose 10 μM, read-out: Growth inhibition percentage (GI %)",29.2%
same,inhibition at 10 µM,"HCT-116; HCT-116 (colon cancer), single dose 10 μM, read-out: Growth inhibition percentage (GI %)",9.65%
same,inhibition at 10 µM,"A498; A498 (renal cancer), single dose 10 μM, read-out: Growth inhibition percentage (GI %)",15.7%
same,inhibition at 10 µM,"MDA-MB-231/ATCC; MDA-MB-231/ATCC (breast cancer), single dose 10 μM, read-out: Growth inhibition percentage (GI %)",-0.43%
same,inhibition at 10 µM,"RXF 393; RXF 393 (renal cancer), single dose 10 μM, read-out: Growth inhibition percentage (GI %)",-12.5%
same,inhibition at 10 µM,"UACC-62; UACC-62 (melanoma), single dose 10 μM, read-out: Growth inhibition percentage (GI %)",25.8%
same,inhibition at 10 µM,"SR; SR (leukaemia), single dose 10 μM",31.9%
same,Mean GI %,[1],10.18%
same,inhibition at 10 µM,"CCRF-CEM; CCRF-CEM (leukaemia), single dose 10 μM",41.3%
same,inhibition at 10 µM,"MDA-MB-468; MDA-MB-468 (breast cancer), single dose 10 μM, read-out: Growth inhibition percentage (GI %)",9.17%
same,inhibition at 10 µM,"HOP-92; HOP-92 (non-small cell lung cancer), single dose 10 μM, read-out: Growth inhibition percentage (GI %)",-16%
same,inhibition at 10 µM,"BT-549; BT-549 (breast cancer), single dose 10 μM, read-out: Growth inhibition percentage (GI %)",-5.92%
same,inhibition at 10 µM,"NCI/ADR-RES; NCI/ADR-RES (ovarian cancer), single dose 10 μM",23.9%
same,inhibition at 10 µM,"786-0; 786-0, 786-0 (renal cancer), single dose 10 μM, read-out: Growth inhibition percentage (GI %)",10.5%
same,inhibition at 10 µM,"MDA-MB-435; MDA-MB-435 (melanoma), single dose 10 μM, read-out: Growth inhibition percentage (GI %)",8.23%
same,inhibition at 10 µM,"SK-MEL-2; SK-MEL-2 (melanoma), single dose 10 μM, read-out: Growth inhibition percentage (GI %)",0.55%
"O=[N+]([O-])c1cccc(/C=N/Nc2nc(N/N=C/c3cccc([N+](=O)[O-])c3)nc(N3CCCCC3)n2)c1 [compound 7f, 2,4-Bis[(E)-2-[(3-Nitrophenyl)methylidene]hydrazin-1-yl]-6-(piperidin-1-yl)-1,3,5-triazine]",inhibition at 10 µM,SNB-19,11.5%
same,inhibition at 10 µM,TK-10,-9.28%
same,inhibition at 10 µM,HCC-2998,5.6%
same,inhibition at 10 µM,RPMI-8226; [2],69.3%
same,inhibition at 10 µM,SF-539; [3],7.37%
same,inhibition at 10 µM,COLO 205; [4],24.1%
same,inhibition at 10 µM,LOX IMVI; LOX IMVI,49.1%
same,inhibition at 10 µM,SF-295; [5],28.3%
same,inhibition at 10 µM,EKVX; EKVX,34.9%
same,inhibition at 10 µM,SW-620; [6],16.5%
same,inhibition at 10 µM,IGROV1; [7],51.3%
same,inhibition at 10 µM,"UO-31; UO-31, read-out: Growth inhibition percentage (GI %)",48.4%
same,inhibition at 10 µM,HCT-15; [8],53.5%
same,inhibition at 10 µM,HCT-116; [9],47%
same,inhibition at 10 µM,A498; [10],18.7%
same,inhibition at 10 µM,MDA-MB-231/ATCC; [11],0.87%
same,inhibition at 10 µM,RXF 393; [12],-3.98%
same,inhibition at 10 µM,UACC-62; [13],43.7%
same,inhibition at 10 µM,SR; SR,53.3%
same,Mean GI %,[1],30.94%
same,inhibition at 10 µM,CCRF-CEM; CCRF-CEM,65.1%
same,inhibition at 10 µM,MDA-MB-468; [14],26.4%
same,inhibition at 10 µM,HOP-92; [15],20.9%
same,inhibition at 10 µM,BT-549; [16],28.2%
same,inhibition at 10 µM,NCI/ADR-RES; NCI/ADR-RES,32.8%
same,inhibition at 10 µM,786-0; [17],-6.21%
same,inhibition at 10 µM,MDA-MB-435; [18],26.1%
same,inhibition at 10 µM,SK-MEL-2; [19],36%
"C/C(=N\Nc1nc(N/N=C(\C)c2ccc([N+](=O)[O-])cc2)nc(N2CCOCC2)n1)c1ccc([N+](=O)[O-])cc1 [compound 8a, 2-(Morpholin-4-yl)-4,6-bis[(E)-2-[1–(4-nitrophenyl)ethylidene]hydrazin-1-yl]-1,3,5-triazine]",inhibition at 10 µM,SNB-19,36.9%
same,inhibition at 10 µM,TK-10,19.2%
same,inhibition at 10 µM,HCC-2998,3.95%
same,inhibition at 10 µM,RPMI-8226; [2],35.3%
same,inhibition at 10 µM,SF-539; [3],84.5%
same,inhibition at 10 µM,COLO 205; [4],5.21%
same,inhibition at 10 µM,LOX IMVI; LOX IMVI,61.1%
same,inhibition at 10 µM,SF-295; [5],33.5%
same,inhibition at 10 µM,EKVX; EKVX,31.9%
same,inhibition at 10 µM,SW-620; [6],4.48%
same,inhibition at 10 µM,IGROV1; [7],6.22%
same,inhibition at 10 µM,HCT-15; [8],33.9%
same,inhibition at 10 µM,HCT-116; [9],29.4%
same,inhibition at 10 µM,A498; [10],33.9%
same,inhibition at 10 µM,MDA-MB-231/ATCC; [11],56.5%
same,inhibition at 10 µM,RXF 393; [12],26.3%
same,inhibition at 10 µM,UACC-62; [13],14.7%
same,inhibition at 10 µM,SR; SR,-13.1%
same,Mean GI %,[1],23.27%
same,inhibition at 10 µM,CCRF-CEM; CCRF-CEM,38.4%
same,inhibition at 10 µM,MDA-MB-468; [14],20.4%
same,inhibition at 10 µM,HOP-92; [15],35.9%
same,inhibition at 10 µM,BT-549; [16],32.7%
same,inhibition at 10 µM,NCI/ADR-RES; NCI/ADR-RES,31.3%
same,inhibition at 10 µM,786-0; [17],33.1%
same,inhibition at 10 µM,MDA-MB-435; [18],15%
same,inhibition at 10 µM,SK-MEL-2; [19],3.61%
